Data on one compound can be found in patent US20130288292A1, “SURFACE-TENSION BASED FLOW GUIDANCE IN A MICROSTRUCTURE ENVIRONMENT” (priority 2011, published 2013).

This assay relates to PC3-M cells. The assay is described as follows: Immunocytochemistry staining of Ki67 in PC3-M cells embedded in 3D Matrigel. In kind it is cell-based. The conditions noted are these: 20 μM Cycloheximide in growth media; PC3-M cells in 3D Matrigel (90%), Iuvo Slide 3D ICC platform. On the procedure: FIGS. 11 A-C show immunocytochemistry staining of PC3-M Cells embedded in 3D matrix. PC3-M cells were embedded in 3D Matrigel™ (90%) on the Iuvo™ Slide—3D ICC platform (Figure A.). Once the matrix gelled, growth media (with and without 20 μM Cycloheximide) was added to the side compartments of the channel. Following incubation, the cells in the matrix were fixed by flowing reagents through the side channels and allowing sufficient time for diffusion into the gel. A standard immunocytochemistry protocol (4% formaldehyde fixative, 0.5% TX-100 permeabilization buffer, 10% goat serum blocking buffer, primary antibody for Ki67 from LabVision, and AlexaFluor®594 secondary antibody) was utilized. […] FIG. 11 C. is a graph showing the quantitative analysis of the immunocytochemistry staining of PC3-M Cells embedded in a 3D Matrix.
Another embodiment of the invention provides a device that enables the use of assay methods requiring multiple liquid replacement, or wash steps that require the diffusion of large biomolecules, in matrices that are very dense, such as Matrigel™. For example, it is becoming increasingly clear that the lack of a native three dimensional tissue microenvironment seriously limits the utility and accuracy of cellular assays, many of which rely on immunocytochemistry as an endpoint. […]

`C[C@@H]1C[C@@H]([C@H](O)CC2CC(=O)NC(=O)C2)C(=O)[C@@H](C)C1` [Cycloheximide]: the “proliferation marker Ki67 (immunocytochemistry staining)” value is on record as “loss of proliferation marker”.
